The test system of test [1] is genotype 1b (Con1 strain) replicon with silent mutation at amino acid 1771. The experiment in a line: Silent-mutation reporter replicon IVT RNA in Huh7.5 cells. The test is classed as cell-based. The conditions noted are these: Hepatitis C virus. An excerpt: To identify nucleotide changes that confer resistance to 80978, replicon RNA was reverse transcribed and amplified from total RNA extracted from 80978-resistant and control Clone A cells. […] One silent mutation at amino acid 1771 was also observed. Each mutation was introduced independently into a stable genotype 1b (Con1 strain) subgenomic reporter replicon plasmid via site-directed mutagenesis. […] The sequence of the wild type NS4B encoding sequence is provided as SEQ ID NO:1, the sequence of the mutated NS4B nucleotide sequence encoding the F1809V mutation is provided as SEQ ID NO:3, and the sequence of the mutated NS4B nucleotide sequence encoding the F1809L mutation is provided as SEQ ID NO:5. The sequence of the wild type NS4B protein is provided as SEQ ID NO:2, the sequence of the mutated NS4B protein with the F1809V mutation is provided as SEQ ID NO:4, and the sequence of the mutated NS4B nucleotide sequence encoding the F1809L mutation is provided as SEQ ID NO:6. […] A differential response was observed between cells electroporated with different replicon RNAs.

Test [2] concerns chimeric APV23 (FL-J6/JFH) genotype 2a HCV. The experiment in a line: HCV APV23 viral infectivity assay in Huh7.5 cells, 3′NTR RNA by realtime quantitative PCR. As to conditions: FIG. 6, genotype 2a NS4B coding region. The test is classed as cell-based, hepatitis C virus. The protocol:
Inhibition of HCV infectivity by AP0080978 and its analogs (AP0080977, non-active enantiomer; AP0089652, racemate; and AP0080935, an aromatic, non-optically active analog of AP0080978) was assayed by exposing cells with infectious chimeric HCV virions in the presence of the compounds. This was accomplished by use of an HCV cell culture system essentially as described in Pietschmann, T. et al. (2006) 103(19): 7408-13, Proc. Natl. Acad. Sci. USA; and elsewhere. Two viral constructs were utilized to characterize inhibition of viral infectivity (FIG. 4). Construct APV23 (FL-J6/JFH) is a full-length, chimeric, genotype 2a HCV genome containing the HCV core through the NS2 first transmembrane domain coding region from the J6 HCV isolate linked to the second NS2 transmembrane domain NS3 through NS5B coding region of HCV strain JFH-1, as shown in FIG. 4 (i.e. an HCV chimera with the “C3 Junction” described in Pietschmann, T. et al. (2006) Proc. Natl. Acad. Sci. USA 103(19): 7408-13; see page 7409 and FIG. 2A of Pietschmann, T. et al.). Construct APV112 was generated by replacing nucleotides encoding amino acids 53 to 218 of the NS4B gene of the APV23 sequence with a corresponding sequence from a genotype 1b (Con1 strain).
Huh7.5 cells were plated at a density of 20,000 cells per well in 96-well plates. The cells were exposed to the chimeric HCV virions at a multiplicity of infection of 0.01. Potential inhibitory compounds were added simultaneously with the chimeric virus. Cells were incubated for 48 hours and then the levels of HCV 3′NTR and GAPDH RNA were quantified by realtime quantitative PCR. Data were analyzed by the comparative Ct method with delta-delta Ct determined relative to 1.0% DMSO. Results in FIGS. 5 and 6 are depicted as log change in 3′NTR copies relative to 1.0% DMSO.

The test system of test [3] is genotype 1b (Con1 strain) subgenomic replicon in 80978-resistant Clone A cells. Briefly: 80978-resistant Clone A cells, HCV RNA by quantitative RT-PCR. The test is classed as cell-based. As to conditions: Hepatitis C virus, 72 h. The protocol:
In an effort to gain insight into the target of 80978, Clone A cells were selected for resistance to 80978. Clone A cells are a human hepatoma cell line that contains a stable genotype 1b (Con1 strain) subgenomic replicon. Cells were cultured for 12 days in medium containing 10 μM 80978 and 1 mg/ml Geneticin™ (Invitrogen). Medium was changed every 3-4 days to replenish compound, and cells were split as needed to maintain subconfluent cultures. After 12 days of growth in the presence of 10 μM 80978, the concentration of 80978 was increased to 20 μM and cultured for an additional 19 days. Control Clone A cells were grown in parallel in the presence of diluent only. After this culture period, cells were evaluated for response to 80978.
Control cells and cells that had been cultured in the presence of 80978 were treated in triplicate with 3-fold serial dilutions of compound for 72 hours. At the end of this incubation period, total RNA was extracted, and HCV RNA levels were measured by quantitative RT-PCR using primers that recognize the 3′NTR.

The record followed here is US8809344B2, “Compounds, compositions, and methods for control of hepatitis C viral infections” (priority 2008, dated 2014).

Molecules are shown by their SMILES.

Take `O=C(NCc1cccs1)c1nn2c(c1Cl)N[C@H](c1ccco1)C[C@@H]2C(F)(F)F` (single isomer, unassigned) [Compound 80978]: the EC50 was 240 nM in test [1] and over 25000 nM in test [3]. For the same compound, the “chimeric APV23 viral infectivity” value is listed as “resistant” in test [2] (listed as AP 80978) and “unaffected” in test [2] (listed as AP0080978).

The term EC50 denotes the midpoint of the concentration-response curve. A high value points to a need for much substance.
